Source: patent publication US8740872B2, “Magnetically-targeted treatment for cardiac disorders” (The Board of Regents of the University of Oklahoma, priority 2010, dated 2014)

Assays:
[1] = system: neurons; conditions: cited from earlier work
[2] = in vivo; cited from earlier work
[3] = dog, in vivo
Method: In 6 other animals, 1.6 mg of NIPA-M (twice the amount of NIPA-M incorporated into one trans-coronary delivery) was directly injected into the left ventricle. NIPA-M used in these experiments was not incorporated into the hydrogel in order to simulate the greatest possible toxic challenge should the total NIPA-M dose be released instantly into the circulation from trans-coronary infusion. Serum samples before and 9.7±0.3 hours after NIPA-M injection were collected for paired analysis to assess renal and hepatic toxicity.

[4] = system: neurotransmitter release at the synapse; conditions: cited from earlier work

Question: Which “LD50% to kill 50% neurons” value [1] does the source give for `C=CC(=O)NC(C)C` [NIPA-M, N-isopropyl acrylamide monomer] here?
Answer: 5 to 8 mM

Question: And the “neuropathy following prolonged oral exposure” value [2]?
Answer: induce clinical (ataxia, rotorod performance deficits) and morphological (tibial nerve degeneration) signs of neuropathy

Question: And the BUN/creatine ratio [3]?
Answer: 17.6±1.7

Question: And the “alanine aminotransferase (ALT)” value [3]?
Answer: 41.3±8.7 U/L

Question: And the “blood urea nitrogen (BUN)” value [3]?
Answer: 16.2 ± 2.9 mmol/L

Question: What about the serum creatinine [3] of the same molecule?
Answer: 0.9 ± 0.1 mmol/L

Question: For botulinum toxin-A [BtA], which “duration of inhibition of neurotransmitter release at the synapse” value [4] is on record?
Answer: 3-6 months
